According to ChEMBL document CHEMBL5506068 (J Med Chem, 2024):
Active and inactive are the calls of the source. The calls are words filed in the database; no cut-off is given here.

Columns and labels:
[1] = molecular target: T1, Delta-type opioid receptor (Homo sapiens, UniProt P41143); experiment: Displacement of [3H]diprenorphine from human DOR expressed in CHO cells assessed as dissociation constant incubated for […] by radioligand binding assay; type: cell-based
[2] = test system: Mus musculus; experiment: Antinociception activity in male Swiss Webster mouse model assessed as increase in maximum possible effect at 10 mg/kg, sc measured after 20 mins by warm-water tail immersion assay relative to control; type: functional
[3] = molecular target: Mu-type opioid receptor (Mus musculus, UniProt P42866); experiment: Displacement of [3H]Naloxone from mouse MOR expressed in CHO cells assessed as dissociation constant incubated for […] by radioligand binding assay; type: cell-based
[4] = test system: Mus musculus; experiment: Antinociception activity in male Swiss Webster mouse model assessed as increase in maximum possible effect at 10 mg/kg, sc administered as single dose measured after 20 mins in presence of morphine by warm-water tail immersion assay relative to control; type: functional
[5] = molecular target: Kappa-type opioid receptor (Mus musculus, UniProt P33534); experiment: Displacement of [3H]diprenorphine from mouse KOR expressed in CHO cells assessed as dissociation constant incubated for […] by radioligand binding assay; type: cell-based
[6] = in vivo; settings: Swiss Webster, mouse, blood and plasma, sc, 0.1 mg/kg
Description: Ratio of drug level in Swiss Webster mouse blood to plasma at 0.1 mg/kg, sc measured after 60 mins by LC-MS/MS analysis

[7] = test system: Mus musculus; experiment: Antinociception activity in male Swiss Webster mouse model assessed as increase in maximum possible effect at 0.1 mg/kg, sc measured after 30 to 180 mins post injection by warm-water tail immersion assay; type: functional, organism-based; settings: time 30-180 min
[8] = Abuse liability in male Sprague-Dawley rat assessed as reduction in reinforcement at 0.32 to 10 microg/kg administered per infusion; type: toxicity; settings: in vivo, iv, dose 0.32-10 µg/kg
[9] = test system: Mus musculus; experiment: Antinociception activity in male Swiss Webster mouse model assessed as effect on tail withdrawal latency at 0.1 mg/kg, sc pre incubated with naltrindole for 30 mins followed by compound addition and measured after 20 mins by warm water tail immersion assay; type: functional, organism-based
[10] = Toxicity in Swiss Webster mouse assessed as effect on average speed at 0.1 to 0.5 mg/kg,sc measured after 30 mins; type: organism-based; settings: in vivo, 0.5 h, dose 0.1-0.5 mg/kg
[11] = Toxicity in Swiss Webster mouse assessed as effect on locomotion at 0.1 to 0.5 mg/kg,sc measured after 30 mins; type: organism-based; settings: in vivo, 0.5 h, dose 0.1-0.5 mg/kg
[12] = Toxicity in Swiss Webster mouse assessed as reduction in sedative effect at 0.1 to 0.5 mg/kg,sc; type: organism-based; settings: in vivo, dose 0.1-0.5 mg/kg
[13] = in vivo; settings: Swiss Webster, mouse, blood and plasma, sc, 0.1 mg/kg; remark: listed apart in the source
Description: Ratio of drug level in Swiss Webster mouse blood to plasma at 0.1 mg/kg, sc measured after 30 mins by LC-MS/MS analysis

[14] = test system: Mus musculus; experiment: Antinociception activity in male Swiss Webster mouse model assessed as effect on tail withdrawal latency at 0.1 mg/kg, sc pre incubated with nor-BNI for 24 hrs followed by compound addition and measured after 20 mins by warm water tail immersion assay; type: functional, organism-based
[15] = test system: Mus musculus; experiment: Antinociception activity in male Swiss Webster mouse model assessed as effect on tail withdrawal latency at 0.1 mg/kg, sc pre incubated with naltrindole/nor-BNI for 24 hrs followed by compound addition and measured after 20 mins by warm water tail immersion assay; type: functional, organism-based
[16] = molecular target: T1, Delta-type opioid receptor; experiment: Agonist activity at human DOR expressed in CHO cells increase in [35S]GTPgammaS binding measured after […] by scintillation counter analysis relative to SNC80; type: functional, cell-based; settings: filed as agonist
[17] = Drug uptake in Swiss Webster mouse plasma at 0.1 mg/kg, sc measured after 5 mins by LC-MS/MS analysis; type: ADME, organism-based; settings: in vivo
[18] = Toxicity in Swiss Webster mouse assessed as reduction in locomotion activity administered as sc dose measured for 30 mins; type: organism-based; settings: in vivo, 0.5 h, dose 0.1-0.5 mg/kg
[19] = molecular target: T1, Delta-type opioid receptor; experiment: Binding affinity to DOR (unknown origin) assessed as dissociation constant
[20] = test system: Mus musculus; experiment: Antinociception activity in male Swiss Webster mouse model assessed as increase in maximum possible effect at 0.1 mg/kg, sc measured after 4 to 9 hrs post injection by warm-water tail immersion assay; type: functional, organism-based; settings: time 4-9 hrs
[21] = Abuse liability in male Sprague-Dawley rat assessed as reduction in reinforcement at 0.1 to 10 microg/kg administered per infusion; type: toxicity; settings: in vivo, iv, dose 0.1-10 µg/kg
[22] = test system: Mus musculus; experiment: Antinociception activity in male Swiss Webster mouse model assessed as increase in maximum possible effect at 0.1 mg/kg, sc measured after 30 to 60 mins post injection by warm-water tail immersion assay; type: functional, organism-based; settings: time 30-60 min
[23] = test system: Mus musculus; experiment: Antinociception activity in male Swiss Webster mouse model assessed as effective dose administered as sc dose measured after 20 mins by warm-water tail immersion assay; type: functional
[24] = molecular target: T1, Delta-type opioid receptor
[25] = species on record: Mus musculus; experiment: Selectivity ratio of Kd for mouse MOR to Kd for mouse KOR
[26] = test system: Mus musculus; experiment: Antinociception activity in male Swiss Webster mouse model assessed as increase in maximum possible effect at 0.05 mg/kg, sc measured after 3 to 5 hrs post injection by warm-water tail immersion assay; type: functional, organism-based; settings: time 3-5 hrs
[27] = test system: Mus musculus; experiment: Antinociception activity in male Swiss Webster mouse model assessed as increase in maximum possible effect at 0.05 mg/kg, sc measured after 30 to 60 mins post injection by warm-water tail immersion assay; type: functional, organism-based; settings: time 30-60 min

T1 sequence (P41143 whole entry): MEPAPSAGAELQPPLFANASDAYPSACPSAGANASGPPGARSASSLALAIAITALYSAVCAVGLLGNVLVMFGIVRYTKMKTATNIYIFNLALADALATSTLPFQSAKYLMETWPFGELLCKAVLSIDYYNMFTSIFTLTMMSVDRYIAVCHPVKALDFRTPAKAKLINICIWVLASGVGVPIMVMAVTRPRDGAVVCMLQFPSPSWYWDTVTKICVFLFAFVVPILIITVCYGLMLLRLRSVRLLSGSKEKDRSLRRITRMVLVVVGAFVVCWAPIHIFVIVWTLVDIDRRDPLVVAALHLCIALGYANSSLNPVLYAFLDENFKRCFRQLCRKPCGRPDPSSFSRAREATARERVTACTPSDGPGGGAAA
Kappa-type opioid receptor, sequence (P33534 whole entry): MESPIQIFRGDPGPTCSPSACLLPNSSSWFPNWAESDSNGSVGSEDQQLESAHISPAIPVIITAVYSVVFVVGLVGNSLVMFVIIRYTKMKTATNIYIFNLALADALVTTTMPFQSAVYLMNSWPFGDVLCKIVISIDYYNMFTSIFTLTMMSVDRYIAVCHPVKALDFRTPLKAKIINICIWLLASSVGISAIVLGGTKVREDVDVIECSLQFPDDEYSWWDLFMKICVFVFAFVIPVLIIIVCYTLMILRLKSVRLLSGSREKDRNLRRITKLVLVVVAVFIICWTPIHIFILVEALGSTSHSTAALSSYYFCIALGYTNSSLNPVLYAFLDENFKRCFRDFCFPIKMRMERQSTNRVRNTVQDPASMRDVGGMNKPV
Mu-type opioid receptor, sequence (P42866 whole entry): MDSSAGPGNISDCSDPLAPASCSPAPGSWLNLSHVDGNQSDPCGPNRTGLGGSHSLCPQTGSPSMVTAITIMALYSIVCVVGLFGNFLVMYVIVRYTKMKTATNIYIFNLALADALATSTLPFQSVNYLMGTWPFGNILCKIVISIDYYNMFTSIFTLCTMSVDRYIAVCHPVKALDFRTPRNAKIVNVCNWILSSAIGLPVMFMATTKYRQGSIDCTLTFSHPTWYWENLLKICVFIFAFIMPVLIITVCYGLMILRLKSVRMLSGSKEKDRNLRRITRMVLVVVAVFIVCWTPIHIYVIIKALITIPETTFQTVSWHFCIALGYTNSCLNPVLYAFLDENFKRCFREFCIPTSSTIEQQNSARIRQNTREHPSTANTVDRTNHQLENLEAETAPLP

SMILES	Kd [1] [nM]	MPE [2]	Kd [3] [nM]	Kd [5] [nM]	further results
Cl.O=C(CCc1ccco1)N[C@@H]1CC[C@@]2(O)[C@H]3Cc4ccc(O)c5c4[C@@]2(CCN3CC2CC2)[C@H]1O5	33	<=40%	0.28	0.61	MPE [4]: 40%
CN(C(=O)CCc1ccco1)[C@H]1CC[C@@]2(O)[C@H]3Cc4cccc5c4[C@@]2(CCN3CC2CC2)[C@H]1O5.Cl	46.8	40%	14.1	1	
CN(C(=O)/C=C/c1ccco1)[C@H]1CC[C@@]2(O)[C@H]3Cc4ccc(O)c5c4[C@@]2(CCN3CC2CC2)[C@H]1O5.Cl	0.93	80%	0.2	0.14	blood plasma ratio at 1 h [6]: 0.938; Activity [7]: Active; Activity [8]: Non-Toxic; Activity [9]: inactive; Activity [10]: Toxic; Activity [11]: Toxic; Activity [12]: Toxic; blood plasma ratio at 0.5 h [13]: 0.633; Activity [14]: inactive; Activity [15]: inactive; Emax [16]: 83.2%; Drug uptake [17]: Active
CN(C(=O)/C=C/c1ccoc1)[C@@H]1CC[C@@]2(O)[C@H]3Cc4ccc(O)c5c4[C@@]2(CCN3CC2CC2)[C@H]1O5.Cl [NALFURAFINE HYDROCHLORIDE]		80%			Activity [18]: Dose-Dependent Effect; Activity [9]: inactive; Activity [10]: Toxic; Activity [11]: Toxic; Activity [14]: inactive; Kd [19]: 116 nM; Activity [20]: inactive; Activity [21]: Non-Toxic; Activity [15]: inactive; Activity [22]: Active; ED50 [23]: 0.046 mg/kg; EC50 [24]: 141 nM
Cl.O=C(CCc1ccoc1)N[C@@H]1CC[C@@]2(O)[C@H]3Cc4cccc5c4[C@@]2(CCN3CC2CC2)[C@H]1O5	749	40%	17.3	8.37	
Cl.O=C(CCc1ccoc1)N[C@H]1CC[C@@]2(O)[C@H]3Cc4cccc5c4[C@@]2(CCN3CC2CC2)[C@H]1O5	154	<=40%	54.5	161	Ratio [25]: 0; MPE [4]: 80%; Emax [16]: 93.1%
Cl.O=C(/C=C/c1ccco1)N[C@H]1CC[C@@]2(O)[C@H]3Cc4cccc5c4[C@@]2(CCN3CC2CC2)[C@H]1O5	456	<=40%	107	249	Ratio [25]: 0; MPE [4]: 100%
CN(C(=O)CCc1ccoc1)[C@H]1CC[C@@]2(O)[C@H]3Cc4cccc5c4[C@@]2(CCN3CC2CC2)[C@H]1O5.Cl	48.6	80%	7.74	0.48	
CN(C(=O)CCc1ccoc1)[C@@H]1CC[C@@]2(O)[C@H]3Cc4cccc5c4[C@@]2(CCN3CC2CC2)[C@H]1O5.Cl	891	<=40%	43.8	34.5	MPE [4]: 100%
Cl.O=C(CCc1ccco1)N[C@@H]1CC[C@@]2(O)[C@H]3Cc4cccc5c4[C@@]2(CCN3CC2CC2)[C@H]1O5	800	40%	27.5	23.6	
Cl.O=C(/C=C/c1ccco1)N[C@@H]1CC[C@@]2(O)[C@H]3Cc4ccc(O)c5c4[C@@]2(CCN3CC2CC2)[C@H]1O5	12.8	80%	0.3	0.17	
Cl.O=C(CCc1ccco1)N[C@H]1CC[C@@]2(O)[C@H]3Cc4cccc5c4[C@@]2(CCN3CC2CC2)[C@H]1O5	90.2	<=40%	53.1	73.8	MPE [4]: 80%
CN1CC[C@]23c4c5ccc(O)c4O[C@H]2[C@@H](O)C=C[C@H]3[C@H]1C5					Activity [26]: inactive; Activity [27]: Active
Cl.O=C(CCc1ccoc1)N[C@@H]1CC[C@@]2(O)[C@H]3Cc4ccc(O)c5c4[C@@]2(CCN3CC2CC2)[C@H]1O5		<=40%	0.21		
CN(C(=O)CCc1ccco1)[C@@H]1CC[C@@]2(O)[C@H]3Cc4ccc(O)c5c4[C@@]2(CCN3CC2CC2)[C@H]1O5.Cl	7.32	100%	0.66	0.32	
CN(C(=O)CCc1ccoc1)[C@@H]1CC[C@@]2(O)[C@H]3Cc4ccc(O)c5c4[C@@]2(CCN3CC2CC2)[C@H]1O5.Cl	8.42	100%	0.53	0.28	
Cl.O=C(/C=C/c1ccco1)N[C@@H]1CC[C@@]2(O)[C@H]3Cc4cccc5c4[C@@]2(CCN3CC2CC2)[C@H]1O5	551	<=40%	42.4	7.03	MPE [4]: 100%; Emax [16]: 81%
CN(C(=O)/C=C/c1ccoc1)[C@H]1CC[C@@]2(O)[C@H]3Cc4ccc(O)c5c4[C@@]2(CCN3CC2CC2)[C@H]1O5.Cl		100%			Kd [19]: 0.64 nM; ED50 [23]: 0.037 mg/kg; EC50 [24]: 2.68 nM
Cl.O=C(/C=C/c1ccco1)N[C@H]1CC[C@@]2(O)[C@H]3Cc4ccc(O)c5c4[C@@]2(CCN3CC2CC2)[C@H]1O5	8.75	100%	0.53	1.08	
C=CCN1CC[C@]23c4c5ccc(O)c4O[C@H]2C(=O)CC[C@@]3(O)[C@H]1C5 [NALOXONE]					MPE [4]: <=40%
CN(C(=O)CCc1ccoc1)[C@H]1CC[C@@]2(O)[C@H]3Cc4ccc(O)c5c4[C@@]2(CCN3CC2CC2)[C@H]1O5.Cl	0.59	40%	0.18	0.13	
CN(C(=O)CCc1ccco1)[C@@H]1CC[C@@]2(O)[C@H]3Cc4cccc5c4[C@@]2(CCN3CC2CC2)[C@H]1O5.Cl	532	40%	93.6	50.4	
Cl.O=C(CCc1ccoc1)N[C@H]1CC[C@@]2(O)[C@H]3Cc4ccc(O)c5c4[C@@]2(CCN3CC2CC2)[C@H]1O5		<=40%	0.44		MPE [4]: 100%
CN(C(=O)/C=C/c1ccco1)[C@@H]1CC[C@@]2(O)[C@H]3Cc4cccc5c4[C@@]2(CCN3CC2CC2)[C@H]1O5.Cl	2260	40%	215	4.11	Emax [16]: 82.1%
CN(C(=O)CCc1ccco1)[C@H]1CC[C@@]2(O)[C@H]3Cc4ccc(O)c5c4[C@@]2(CCN3CC2CC2)[C@H]1O5.Cl	0.37	100%	0.15	0.12	
Cl.O=C(CCc1ccco1)N[C@H]1CC[C@@]2(O)[C@H]3Cc4ccc(O)c5c4[C@@]2(CCN3CC2CC2)[C@H]1O5		<=40%	0.72		
CN(C(=O)/C=C/c1ccco1)[C@H]1CC[C@@]2(O)[C@H]3Cc4cccc5c4[C@@]2(CCN3CC2CC2)[C@H]1O5.Cl	68.4	80%	16.8	0.62	Emax [16]: 102%
